Series [1] concerns Human CD34+ cord blood (CB) cells. The experiment in a line: CD34+ activity assessment (7-day expansion of pre-expanded CD34+ cells, flow cytometry). The series is classed as cell-based. The conditions noted are these: concentration at which compound/vehicle ratio of CD34+ cell number is >= 1.5; 7 days, with 35 nM UM0128171; Table 1. The method, then: Human CD34+ cord blood (CB) cells were isolated from fresh units using RosetteSep™ 0034 pre-enrichment cocktail followed by CD34 positive selection using EasySep Kit™ (StemCell Technologies). The cells were then pre-expanded in bulk, by culturing at 37° C. for 6 days in HSC expansion media consisting of StemSpan ACF (StemCell Technologies) supplemented with 100 ng/mL Stem Cell Factor (SCF, Shenandoah), 100 ng/mL FMS-like Tyrosine Kinase 3 Ligand (FLT3L, Shenandoah), 50 ng/mL Thrombopoietin (TPO, Shenandoah), 2 mM GlutaMAX™ (Invitrogen), 10 μg/mL low density lipoproteins (LDL, StemCell Technologies), 10 μg/mL Ciprofloxacin and 35 nM UM0128171. […] Following the pre-expansion, cells were harvested, aliquoted and frozen until use.
For each activity assessment, CD34+ pre-expanded cells (approximately 2000 per well in a 384-well plate) were cultured in HSC expansion media, in the presence of 35 nM UM0128171. Compounds were serially diluted (1/2) in DMSO (10 dilutions per compound) and added to the cells in order to achieve a 1/1000 final dilution. StemRegenin1 (SR1) and/or Compound 1001 were included in all experiments as controls to monitor assay performance. The plate was incubated at 37° C. for 7 days in static conditions (i.e. no shaking and no addition of media). Flow cytometry analysis was performed at the end of the 7-day expansion. Cells were stained with PE-labeled anti-human CD45RA (BD Biosciences) and APC-labeled anti-human CD34 (BD Biosciences) and analyzed using Intellicyt IQue cytometer equipped with ForeCyt software. Gates were drawn around the populations of interest to obtain cell numbers and relative proportions. The EC1.5 value, which is the concentration at which the compound/vehicle ratio is greater or equal to 1.5, was calculated by plotting the CD34+ cell number against concentrations (log-scale) in a 4-PL curve and fitting the curve using IDBS XLfit (set model 251) in Microsoft Excel.
In general terms: A flow cytometer gives signals particle by particle.

The next series deals with T1, AhR (Homo sapiens, UniProt P35869).
T1 construct: One of the resultant clones was named HEK-XRE 11.1, and used in the reporter gene assays; endogenous in cells; host or cells: HEK-XRE 11.1 (HEK cells stably carrying the AhR-responsive luciferase reporter X4-4.27 and phRL-CMV)
T1 sequence (P35869 11-848): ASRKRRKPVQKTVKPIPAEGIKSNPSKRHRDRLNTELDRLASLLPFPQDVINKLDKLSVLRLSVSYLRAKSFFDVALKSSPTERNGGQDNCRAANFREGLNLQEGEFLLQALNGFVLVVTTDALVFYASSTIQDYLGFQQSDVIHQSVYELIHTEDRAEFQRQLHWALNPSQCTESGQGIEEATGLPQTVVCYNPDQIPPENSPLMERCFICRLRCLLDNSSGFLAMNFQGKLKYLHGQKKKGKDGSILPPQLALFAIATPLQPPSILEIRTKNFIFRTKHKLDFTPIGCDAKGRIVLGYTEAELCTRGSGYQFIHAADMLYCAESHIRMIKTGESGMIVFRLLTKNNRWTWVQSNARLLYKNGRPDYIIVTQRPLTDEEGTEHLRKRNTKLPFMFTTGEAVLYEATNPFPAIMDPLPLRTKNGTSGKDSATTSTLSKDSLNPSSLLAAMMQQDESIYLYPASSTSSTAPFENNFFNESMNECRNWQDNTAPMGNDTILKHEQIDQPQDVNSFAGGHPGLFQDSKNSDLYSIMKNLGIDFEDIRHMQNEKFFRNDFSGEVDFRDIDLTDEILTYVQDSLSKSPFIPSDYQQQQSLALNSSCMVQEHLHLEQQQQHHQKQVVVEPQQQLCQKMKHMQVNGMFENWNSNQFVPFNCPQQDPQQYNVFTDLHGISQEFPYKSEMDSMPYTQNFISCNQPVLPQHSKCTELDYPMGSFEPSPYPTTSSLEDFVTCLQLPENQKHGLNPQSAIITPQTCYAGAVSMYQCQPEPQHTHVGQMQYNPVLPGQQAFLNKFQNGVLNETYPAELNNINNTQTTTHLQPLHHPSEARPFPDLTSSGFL
The experiment in a line: Inhibition of AhR-mediated gene transcription (HEK-XRE 11.1 luciferase reporter, MeBIO induction). The series is classed as cell-based. The conditions noted are these: HEK-XRE 11.1 cells, MeBIO 0.1 nM, luminescence after 24 hours; Table 1. The method, then: HEK cells line was transfected with an AhR-responsive firefly luciferase reporter gene X4-4.27 and the stable transfectants generated were again transfected with phRL-CMV (a Renilla luciferase expression vector; Promega) along with pBAsi-hU6 Pur DNA (a plasmid carrying the puromycin-resistant gene; TaKaRa, Shiga, Japan), and maintained in the presence of both hygromycin B and puromycin (2 mg/mL). One of the resultant clones was named HEK-XRE 11.1, and used in the reporter gene assays.
HEK-XRE 11.1 cells were plated in 384-well plates at a density of 25,000 cells in 50 uL volume per well. The induction of ARh pathway was done by addition of MeBIO at 0.1 nM concentration. ARh antagonist compounds were then added to seeded cells in serial dilutions (8 dilutions, 1:[…] down to 5 nM) in duplicate wells. Renilla expression was not used as internal control. On each plate, Compound 1001 and SR1 were added as dose control (8 dilutions, 1:3, 5 mM down to 2.5 nM for SR1 and 2 mM down to 1 nM for compound 1001). Luminescence activity was evaluated after 24 hours culture using Lumi-384-CellTiterGlo-Corning protocol. Dose-response curves were generated using nonlinear regression in Excel.
On the technique in general: Reporter assays use an easily measured gene product as a stand-in for the process of interest.

Turning to `Cc1cnc2sc(C(=O)Nc3ccc(Br)cc3)c(N)c2c1` [Compound 1062], the EC1.5 in series [1] was less than 100 nM. On AhR, this compound gave an IC50 of less than 50 nM.
The matching figures for `Cc1cnc2sc(C(=O)Nc3ccncc3)c(N)c2c1` [Compound 1063]: more than 5000 nM and 50 to 500 nM.
The matching figures for `Nc1c(C(=O)Nc2ccc(Br)cc2)sc2ccc(C(F)(F)F)cc12` [Compound 1064]: 100 to 1000 nM and 50 to 500 nM.
Consider `Cc1ccc(NC(=O)c2sc3ccc(C(F)(F)F)cc3c2N)cc1` [Compound 1065], for which, in series [1], the EC1.5 was in the range of 100 to 1000 nM. The IC50 at AhR lay in the range of 50 to 500 nM.
The matching figures for `Nc1c(C(=O)Nc2ccc(Cl)cc2)sc2ccc(C(F)(F)F)cc12` [Compound 1066]: 100 to 1000 nM and less than 50 nM.
The matching figures for `Nc1c(C(=O)Nc2cccnc2)sc2ccc(C(F)(F)F)cc12` [Compound 1067]: 1000 to 5000 nM and less than 50 nM.
The matching figures for `Cc1cnc2sc(C(=O)Nc3ccc(Cl)cc3)c(N)c2c1` [Compound 1068]: less than 100 nM and less than 50 nM.
Take `Cc1ccc(NC(=O)c2sc3ncc(C)cc3c2N)cc1` [Compound 1069]: the EC1.5 in series [1] was 100 to 1000 nM. Also, the IC50 against AhR was less than 50 nM.
As for `Cc1ccc(NC(=O)c2sc3ncc(C(F)(F)F)cc3c2N)cn1` [Compound 1070], in series [1], the EC1.5 is given as more than 5000 nM. Moreover, the IC50 against AhR was in the range of 50 to 500 nM.
`COc1ccc(NC(=O)c2sc3ncc(C(F)(F)F)cc3c2N)cn1` [Compound 1071]: in series [1], the EC1.5 lay within 100 to 1000 nM. The IC50 against AhR is less than 50 nM.
The matching figures for `Cc1ccc2sc(C(=O)Nc3ccccc3)c(N)c2n1` [Compound 1072]: more than 5000 nM and 50 to 500 nM.
As to `Cc1ccc2sc(C(=O)Nc3ccc(Cl)cc3)c(N)c2n1` [Compound 1073], the EC1.5 in series [1] is more than 5000 nM. The same compound yielded an IC50 at AhR of 50 to 500 nM.
The matching figures for `Nc1c(C(=O)Nc2ccc(F)c(Cl)c2)sc2ncc(C(F)(F)F)cc12` [Compound 1074]: 100 to 1000 nM and less than 50 nM.
The matching figures for `Nc1c(C(=O)Nc2ccc(F)c(F)c2)sc2ncc(C(F)(F)F)cc12` [Compound 1075]: 100 to 1000 nM and less than 50 nM.
The matching figures for `Cc1cc(NC(=O)c2sc3ncc(C(F)(F)F)cc3c2N)ccc1F` [Compound 1076]: 100 to 1000 nM and 50 to 500 nM.
As to `Nc1c(C(=O)Nc2cccc(F)c2)sc2ncc(C(F)(F)F)cc12` [Compound 1077], the EC1.5 in series [1] was 100 to 1000 nM. This compound gave an IC50 against AhR of less than 50 nM.
The matching figures for `Cc1ccc(NC(=O)c2sc3ncc(C(F)(F)F)cc3c2N)cc1F` [Compound 1078]: 1000 to 5000 nM and 50 to 500 nM.
The matching figures for `Nc1c(C(=O)Nc2cc(F)cc(F)c2)sc2ncc(C(F)(F)F)cc12` [Compound 1079]: 1000 to 5000 nM and 50 to 500 nM.
The matching figures for `COc1cccc(NC(=O)c2sc3cnc(C(F)(F)F)cc3c2N)c1` [Compound 1080]: 100 to 1000 nM and less than 50 nM.
On to `COc1cccc(NC(=O)c2sc3nc4c(cc3c2N)CCC4)c1` [Compound 1081], for which, in series [1], the EC1.5 is less than 100 nM. On AhR, this compound returned an IC50 of less than 50 nM.
As for `Nc1c(C(=O)Nc2ccc(Cl)cc2)sc2nc3c(cc12)CCC3` [Compound 1082], in series [1], the EC1.5 was less than 100 nM. At AhR, the half-inhibitory concentration (IC50) was less than 50 nM.
The matching figures for `COc1ccc(NC(=O)c2sc3ccc(C(F)(F)F)cc3c2N)cc1` [Compound 1083]: less than 100 nM and 50 to 500 nM.
The matching figures for `Nc1c(C(=O)Nc2ccc(OC(F)(F)F)cc2)sc2ncc(C(F)(F)F)cc12` [Compound 1084]: less than 100 nM and less than 50 nM.
With `COc1cccc(NC(=O)c2sc3ncc(C(F)(F)F)cc3c2N)c1` [Compound 1085], the EC1.5 in series [1] was in the range of 100 to 1000 nM. Besides, the IC50 on AhR fell in the range of 50 to 500 nM.
The matching figures for `Nc1c(C(=O)Nc2ccc(OC(F)F)cc2)sc2ncc(C(F)(F)F)cc12` [Compound 1086]: 100 to 1000 nM and less than 50 nM.
The matching figures for `COc1ccc(NC(=O)c2sc3ncc(C(F)(F)F)cc3c2N)cc1Cl` [Compound 1087]: less than 100 nM and less than 50 nM.
The matching figures for `Nc1c(C(=O)Nc2ccc(F)cc2)sc2cnc(C(F)(F)F)cc12` [Compound 1088]: more than 5000 nM and less than 50 nM.
Regarding `Nc1c(C(=O)Nc2ccc(F)cc2)sc2ccc(C(F)(F)F)cc12` [Compound 1089], in series [1], the EC1.5 lay within 100 to 1000 nM. The compound further came in with an IC50 against AhR of less than 50 nM.
As to `Nc1c(C(=O)Nc2ccccc2)sc2ncc(C3CC3)cc12` [Compound 1091], in series [1], the EC1.5 is 100 to 1000 nM. For the same compound, on AhR, the IC50 lay within 50 to 500 nM.
The matching figures for `Nc1c(C(=O)Nc2ccc(Oc3ccccc3)cc2)sc2ncc(C(F)(F)F)cc12` [Compound 1092]: 100 to 1000 nM and 50 to 500 nM.
Turning to `Nc1c(C(=O)Nc2cccc(Cl)c2)sc2ncc(C(F)(F)F)cc12` [Compound 1093], in series [1], the EC1.5 is recorded as less than 100 nM. On AhR, this compound had an IC50 of less than 50 nM.
`Cc1cccc(NC(=O)c2sc3ncc(C(F)(F)F)cc3c2N)c1` [Compound 1094]: the EC1.5 in series [1] was less than 100 nM. Besides, the IC50 against AhR is less than 50 nM.
Take `Nc1c(C(=O)Nc2ccc(Cl)c(Cl)c2)sc2ncc(C(F)(F)F)cc12` [Compound 1095]: the EC1.5 in series [1] lay in the range of 100 to 1000 nM. On AhR, this compound registered an IC50 of 50 to 500 nM.
The matching figures for `Cc1cc(NC(=O)c2sc3ncc(C(F)(F)F)cc3c2N)ccc1Cl` [Compound 1096]: 1000 to 5000 nM and 50 to 500 nM.
In the case of `Nc1c(C(=O)Nc2ccc(Cl)c(O)c2)sc2ncc(C(F)(F)F)cc12` [Compound 1097], the EC1.5 in series [1] fell in the range of 1000 to 5000 nM. Moreover, the IC50 against AhR was more than 500 nM.
The matching figures for `Nc1c(C(=O)Nc2ccc3c(c2)OCO3)sc2ncc(C(F)(F)F)cc12` [Compound 1098]: less than 100 nM and 50 to 500 nM.
Take `Nc1c(C(=O)Nc2ccc3c(c2)OCCO3)sc2ncc(C(F)(F)F)cc12` [Compound 1099]: the EC1.5 in series [1] is on record as less than 100 nM. At AhR, this compound registered an IC50 of 50 to 500 nM.

One may read the IC50 as the point on the concentration scale where inhibition reaches its midpoint. Low values mean inhibition by little substance, high ones a need for much substance.

The record behind these values is patent US11696928B2, “Compounds and use thereof in the expansion of stem cells and/or progenitor cells” (UNIVERSITE DE MONTREAL, priority 2017, dated 2023).
